Assay results taken from ChEMBL document CHEMBL1201862, “PubChem BioAssay data set” (2004).
Active and inactive are the calls of the source.

Legend:
HEK293 = test: Fluorescence-based counterscreen for potentiators or agonists of NPY-Y2: cell-based high-throughput dose response assay to identify inhibitors of cyclic nucleotide gated ion channel (CNGC) activity. In this assay, the parental HEK293 cell line transfected with a cyclic-nucleotide gated ion channel (CNGC)-based cAMP sensor is used to measure inhibition of isoproterenol-induced CNGC activity by test compound.; format: functional; conditions: Homo sapiens;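 further: stimulus is 1 µM isoproterenol at EC100 plus PDE inhibitor Ro 20-1724 at 25 µM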
[1] = molecular target: Lysosomal acid glucosylceramidase (Homo sapiens, UniProt P04062); test: Dose response cell-based high throughput screening assay to identify enhancers of beta-glucosidase activity. [Related pubchem assays: 784 ]; format: functional
Chain of Lysosomal acid glucosylceramidase (P04062 whole entry): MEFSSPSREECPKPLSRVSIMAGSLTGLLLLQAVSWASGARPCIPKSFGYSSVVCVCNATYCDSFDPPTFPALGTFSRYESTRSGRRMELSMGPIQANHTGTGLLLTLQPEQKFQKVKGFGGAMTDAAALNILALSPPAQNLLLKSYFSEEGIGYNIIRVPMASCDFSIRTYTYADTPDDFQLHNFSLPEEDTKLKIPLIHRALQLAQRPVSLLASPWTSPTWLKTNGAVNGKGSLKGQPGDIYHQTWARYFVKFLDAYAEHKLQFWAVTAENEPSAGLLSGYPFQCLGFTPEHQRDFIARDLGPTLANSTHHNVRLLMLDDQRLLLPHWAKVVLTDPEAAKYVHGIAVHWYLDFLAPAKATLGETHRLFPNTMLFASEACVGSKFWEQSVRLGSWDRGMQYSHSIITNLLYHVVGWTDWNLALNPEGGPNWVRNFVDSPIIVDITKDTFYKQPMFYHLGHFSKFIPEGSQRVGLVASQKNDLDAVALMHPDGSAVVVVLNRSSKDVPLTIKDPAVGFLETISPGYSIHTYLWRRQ

[2] = molecular target: T1, Neuropeptide Y receptor type 1 (Homo sapiens, UniProt P25929); test: Fluorescence-based counterscreen for agonists of NPY-Y2: cell-based high-throughput dose response assay for agonists of NPY-Y1.; format: functional
T1 sequence (P25929 whole entry): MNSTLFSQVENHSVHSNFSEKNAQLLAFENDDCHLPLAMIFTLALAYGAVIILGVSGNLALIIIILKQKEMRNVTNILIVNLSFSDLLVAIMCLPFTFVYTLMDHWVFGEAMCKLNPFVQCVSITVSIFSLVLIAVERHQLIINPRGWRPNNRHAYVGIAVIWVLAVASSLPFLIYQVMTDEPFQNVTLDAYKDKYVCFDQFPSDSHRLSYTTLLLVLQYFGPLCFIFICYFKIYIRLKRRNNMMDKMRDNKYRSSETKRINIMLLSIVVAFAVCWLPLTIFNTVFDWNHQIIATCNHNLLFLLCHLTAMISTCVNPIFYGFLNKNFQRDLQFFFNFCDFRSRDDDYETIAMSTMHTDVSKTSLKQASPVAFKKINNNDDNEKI

[3] = molecular target: T2, Neuropeptide Y receptor type 2 (Homo sapiens, UniProt P49146); test: Fluorescence-based cell-based high-throughput dose response assay for agonists of NPY-Y2. [Related pubchem assays: 1703 (Screening assay (CNGC inhibitors).), 1359 (Screening assay (NPY-Y2 potentiators or agonists).), 1304 (Screening assay (NPY-Y1 potentiators or agonists).), 1710 (Screening assay (NPY-Y2 agonists).), 1791 (Summary AID.)]; format: functional
T2 sequence (P49146 whole entry): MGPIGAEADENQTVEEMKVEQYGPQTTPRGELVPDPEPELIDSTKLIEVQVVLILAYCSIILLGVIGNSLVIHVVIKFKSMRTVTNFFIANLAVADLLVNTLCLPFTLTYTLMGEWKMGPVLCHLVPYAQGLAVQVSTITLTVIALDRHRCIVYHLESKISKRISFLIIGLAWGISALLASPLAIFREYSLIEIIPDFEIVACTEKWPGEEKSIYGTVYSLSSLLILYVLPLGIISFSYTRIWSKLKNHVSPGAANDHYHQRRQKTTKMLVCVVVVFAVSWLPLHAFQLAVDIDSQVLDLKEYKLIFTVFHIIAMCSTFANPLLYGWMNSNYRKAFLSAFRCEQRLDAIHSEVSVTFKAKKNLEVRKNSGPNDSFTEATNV

Insulin-degrading enzyme = molecular target: T3, Insulin-degrading enzyme (Homo sapiens, UniProt P14735); test: Dose Response: Fluorescence polarization-based cell-based high throughput dose response assay for inhibitors of insulin-degrading enzyme (IDE). [Related pubchem assays: 434962 (Primary screen (IDE inhibitors in singlicate)), 449730 (Counterscreen (Cytotoxicity in triplicate)), 435028 (Confirmation (IDE inhibitors in triplicate)), 434984 (Summary …; format: functional
T3 sequence (P14735 whole entry): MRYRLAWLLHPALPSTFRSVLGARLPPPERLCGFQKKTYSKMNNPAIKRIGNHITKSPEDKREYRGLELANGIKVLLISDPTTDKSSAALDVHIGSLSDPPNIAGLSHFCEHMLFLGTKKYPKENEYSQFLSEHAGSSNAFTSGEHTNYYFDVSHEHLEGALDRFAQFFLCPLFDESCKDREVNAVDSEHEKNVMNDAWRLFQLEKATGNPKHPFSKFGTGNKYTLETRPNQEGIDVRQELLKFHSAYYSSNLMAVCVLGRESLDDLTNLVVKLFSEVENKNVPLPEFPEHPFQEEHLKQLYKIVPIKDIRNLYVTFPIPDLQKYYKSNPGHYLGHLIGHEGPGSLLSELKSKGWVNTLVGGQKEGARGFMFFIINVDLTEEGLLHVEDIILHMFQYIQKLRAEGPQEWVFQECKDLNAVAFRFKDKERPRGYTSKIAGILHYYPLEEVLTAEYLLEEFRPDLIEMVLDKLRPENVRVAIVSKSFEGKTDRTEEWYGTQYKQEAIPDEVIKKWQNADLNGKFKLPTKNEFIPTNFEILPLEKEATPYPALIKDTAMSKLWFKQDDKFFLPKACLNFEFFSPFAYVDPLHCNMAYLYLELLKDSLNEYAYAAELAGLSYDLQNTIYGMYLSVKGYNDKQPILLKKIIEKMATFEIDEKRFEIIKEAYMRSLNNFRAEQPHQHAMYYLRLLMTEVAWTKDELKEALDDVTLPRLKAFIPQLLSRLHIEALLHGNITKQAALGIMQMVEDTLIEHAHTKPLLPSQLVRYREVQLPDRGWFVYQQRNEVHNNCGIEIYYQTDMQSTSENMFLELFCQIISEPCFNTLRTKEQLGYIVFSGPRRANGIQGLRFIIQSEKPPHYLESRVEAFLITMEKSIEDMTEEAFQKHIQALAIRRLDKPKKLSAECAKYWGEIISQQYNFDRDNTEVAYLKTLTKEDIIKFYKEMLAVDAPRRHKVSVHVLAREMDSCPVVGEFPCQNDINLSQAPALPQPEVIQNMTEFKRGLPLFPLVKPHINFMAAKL

[4] = Counterscreen for IDE inhibitors: Luminescence-based cell-based high throughput dose response assay to identify compounds that are cytotoxic to HEK cells. [Related pubchem assays: 434962 (Primary screen (IDE inhibitors in singlicate)), 449730 (Counterscreen (Cytotoxicity in triplicate)), 435028 (Confirmation (IDE inhibitors in triplicate)) …; format: functional; conditions: HEK293
[5] = molecular target: G-protein coupled receptor 35 (Homo sapiens, UniProt Q9HC97); test: GPR35 antagonists blocking zaprinast-driven arrestin recruitment, primary screen, imaging, U2OS, beta-arrestin-GFP, zaprinast agonist (AID 2058); format: functional;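 further: antagonist potency meaning inhibition of agonist-induced arrestin redistribution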
Chain of G-protein coupled receptor 35 (Q9HC97 whole entry): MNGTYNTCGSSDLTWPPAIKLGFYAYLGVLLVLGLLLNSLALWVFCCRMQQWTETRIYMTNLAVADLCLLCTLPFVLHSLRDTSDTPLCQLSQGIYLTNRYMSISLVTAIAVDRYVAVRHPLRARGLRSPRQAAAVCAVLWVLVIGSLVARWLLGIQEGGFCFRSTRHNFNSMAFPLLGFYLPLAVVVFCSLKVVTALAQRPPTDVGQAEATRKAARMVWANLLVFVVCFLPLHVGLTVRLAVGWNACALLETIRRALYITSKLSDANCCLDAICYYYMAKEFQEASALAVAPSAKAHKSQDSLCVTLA

[6] = enhancers of respiration in Yfh1-depleted yeast, dose response, Friedreich's ataxia, plus single-dose screen (AID 1465); format: functional;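 further: yeast depleted of Yfh1p frataxin homolog grown on glycerol needing respiration; WST-1 tetrazolium dye reduction as measure of cellular dehydrogenase metabolic activity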
cells = format: functional, cell-based; conditions: PPC-1
MDA-MB-435 = test: cells; format: functional, cell-based; conditions: Homo sapiens
[7] = molecular target: Beta-2 adrenergic receptor (Homo sapiens, UniProt P07550); test: beta2AR agonists driving receptor internalization, dose response, cell-based, FAP fluorogen, flow cytometry, cherry pick 1 (AID 588763); format: functional
Chain of Beta-2 adrenergic receptor (P07550 whole entry): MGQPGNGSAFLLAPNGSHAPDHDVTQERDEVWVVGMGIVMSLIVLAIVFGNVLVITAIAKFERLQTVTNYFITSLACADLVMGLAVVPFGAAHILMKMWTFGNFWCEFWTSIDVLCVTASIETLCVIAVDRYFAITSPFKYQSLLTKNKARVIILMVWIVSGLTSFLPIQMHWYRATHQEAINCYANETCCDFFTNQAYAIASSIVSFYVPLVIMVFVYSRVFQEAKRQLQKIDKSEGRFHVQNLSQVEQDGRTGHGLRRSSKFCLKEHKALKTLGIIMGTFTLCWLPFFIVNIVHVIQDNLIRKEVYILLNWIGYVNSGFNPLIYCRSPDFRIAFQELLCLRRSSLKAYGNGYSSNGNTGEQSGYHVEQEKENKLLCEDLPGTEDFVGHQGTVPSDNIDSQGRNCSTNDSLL

[8] = molecular target: Cyclin-dependent kinase 5/CDK5 activator 1 (Homo sapiens, UniProt Q00535); test: CDK5/p35 kinase inhibitors, dose response, biochemical, cherry-picked samples, set 2 (AID 504545)
Chain of Cyclin-dependent kinase 5/CDK5 activator 1 (Q00535 whole entry): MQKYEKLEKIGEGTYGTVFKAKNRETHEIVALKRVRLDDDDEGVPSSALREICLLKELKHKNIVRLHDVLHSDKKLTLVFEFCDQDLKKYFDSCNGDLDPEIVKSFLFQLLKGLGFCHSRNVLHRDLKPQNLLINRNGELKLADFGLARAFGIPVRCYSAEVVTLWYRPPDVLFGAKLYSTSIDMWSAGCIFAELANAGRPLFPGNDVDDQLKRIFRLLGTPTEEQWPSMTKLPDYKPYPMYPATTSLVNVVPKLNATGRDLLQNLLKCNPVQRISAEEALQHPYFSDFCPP
Chain of Cyclin-dependent kinase 5/CDK5 activator 1 (Q15078 whole entry, further chain): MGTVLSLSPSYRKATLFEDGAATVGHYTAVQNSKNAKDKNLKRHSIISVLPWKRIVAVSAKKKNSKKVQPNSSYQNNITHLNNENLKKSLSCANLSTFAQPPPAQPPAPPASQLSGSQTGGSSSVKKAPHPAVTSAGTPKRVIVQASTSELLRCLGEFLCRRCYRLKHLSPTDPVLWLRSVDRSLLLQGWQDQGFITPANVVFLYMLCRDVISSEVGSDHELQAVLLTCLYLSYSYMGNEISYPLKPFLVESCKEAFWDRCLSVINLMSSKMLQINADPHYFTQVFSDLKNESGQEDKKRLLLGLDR

[9] = cytotoxicity in HEK-293T cells, dose response, cytotoxicity control for TCR NF-kB inhibitor project, luminescence, T-cell screen hits (AID 489026); format: functional, cell-based;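 further: cells exposed to compound about 14 hours before the viability readout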
[10] = Luminescence Cell-Based Dose Response HTS to Identify Activators of Luciferase Translation or Activity in H4 […] Cells. [Related pubchem assays: 1829 (Project Summary), 1814 (Primary HTS)]; format: functional
J774.A1 = test: Confirmation of image-based Screening Assay for Inhibitors of Phagocytosis. [Related pubchem assays (depositor defined):AID1029, AID1643]; format: functional, cell-based; conditions: Mus musculus
H4 = test: Luminescence Cell-Based Dose Response HTS to Identify Activators of 5'UTR Stem-Loop Driven Prion Protein mRNA Translation in H4 Neuroglioblastoma Cells. [Related pubchem assays: 1829 (Project Summary), 1814 (Primary HTS)]; format: functional; conditions: Homo sapiens

O=C(NCCCn1ccnc1)Nc1ccc(Cl)cc1
EC50 (HEK293): > 35.4 µM (not active) | EC50 [1]: > 50 µM (not active) | EC50 [2]: > 35.4 µM (not active) | EC50 [3]: > 35.4 µM (not active)

N#C/C(=C\c1ccc(N2CCCCC2)o1)C(N)=O
IC50 (Insulin-degrading enzyme): 8.72 µM (active) | IC50 [4]: > 55.7 µM (not active) | IC50 [5]: 6.55 µM (active) | EC50 [6]: > 100 µM (active)

CC(Sc1nc(-c2ccccc2)cc(C(F)(F)F)n1)C(=O)N1CCCC1 (stereo unspecified)
IC50 (cells): > 10 µM (inactive) | IC50 (MDA-MB-435): > 10 µM (inactive) | EC50 [7]: 0.243 µM (active)

CC(C)Oc1ccc(NC(=O)Oc2ccccc2)cc1
AC50 [8]: 129 µM (active)

Cc1cc(=O)oc2cc(OCC3CC(c4ccccc4Cl)=NO3)ccc12 (stereo unspecified)
IC50 [9]: > 80 µM (inactive) | EC50 [10]: 11.7 µM (active) | IC50 (J774.A1): > 25 µM (inactive) | EC50 (H4): > 120 µM (not active)
